# Results published in US8822449B2, “Substituted aminoindanes and analogs thereof, and the pharmaceutical use thereof” (Sanofi, priority 2008, dated 2014).
# Molecular target: T1, sodium-proton exchanger of subtype 3 (NHE3) (Homo sapiens, UniProt P48764)
# T1 construct: expressed in transfected cells
# T1 sequence (P48764 26-834): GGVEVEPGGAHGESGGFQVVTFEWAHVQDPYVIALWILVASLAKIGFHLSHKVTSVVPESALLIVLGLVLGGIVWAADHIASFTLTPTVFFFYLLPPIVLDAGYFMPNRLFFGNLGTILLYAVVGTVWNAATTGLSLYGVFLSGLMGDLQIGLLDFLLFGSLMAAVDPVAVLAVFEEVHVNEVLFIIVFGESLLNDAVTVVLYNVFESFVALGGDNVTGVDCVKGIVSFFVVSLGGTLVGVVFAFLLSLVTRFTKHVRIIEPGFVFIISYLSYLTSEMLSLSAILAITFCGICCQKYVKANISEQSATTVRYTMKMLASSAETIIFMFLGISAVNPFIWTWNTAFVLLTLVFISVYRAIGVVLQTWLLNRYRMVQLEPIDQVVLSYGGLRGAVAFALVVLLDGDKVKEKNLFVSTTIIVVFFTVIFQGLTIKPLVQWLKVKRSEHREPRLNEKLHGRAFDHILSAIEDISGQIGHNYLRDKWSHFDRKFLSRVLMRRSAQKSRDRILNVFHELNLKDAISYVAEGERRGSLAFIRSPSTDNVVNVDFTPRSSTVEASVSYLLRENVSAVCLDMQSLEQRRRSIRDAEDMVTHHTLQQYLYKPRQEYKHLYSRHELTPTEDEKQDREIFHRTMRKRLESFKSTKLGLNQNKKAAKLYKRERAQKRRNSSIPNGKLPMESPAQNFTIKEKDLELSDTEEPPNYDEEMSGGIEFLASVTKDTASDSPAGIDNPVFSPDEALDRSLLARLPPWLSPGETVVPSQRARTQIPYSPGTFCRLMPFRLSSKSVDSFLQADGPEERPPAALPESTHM
# Experiment: Recovery of intracellular pH (pHi) after acidification in LAP1 cells stably expressing NHE3 (BCECF fluorescence, FLIPR)
# Type: cell-based
# Conditions: LAP1 cells stably expressing NHE3; pH recovery after acidification; range 1 is % inhibition at 10 μM; read-out: Activity range (inhibitory effect on NHE3)
SMILES,IC50 [nM],inhibition at 10 µM [%]
"Fc1ccc(O[C@@H]2c3ccccc3C[C@H]2N2C[C@H]3CNC[C@H]3C2)c(F)c1 (racemic) [Example 9, 2-[rac-trans-(1,2)-1-(2,4-difluorophenoxy)indan-2-yl]octahydropyrrolo[3,4-c]pyrrole]",1000 to 10000,
"N[C@H]1CCCN([C@H]2CCc3ccccc3[C@@H]2Oc2ccnc(Cl)c2)C1 (racemic) [Example 153, (S)-1-[rac-trans-(1,2)-1-(2-chloropyridin-4-yloxy)-1,2,3,4-tetrahydronaphthalen-2-yl]piperidin-3-ylamine]",,20 to 50
"N[C@H]1CCCN([C@H]2CCc3ccccc3[C@@H]2Oc2ccncc2)C1 (racemic) [Example 191, (S)-1-[rac-trans-(1,2)-1-(pyridin-4-yloxy)-1,2,3,4-tetrahydronaphthalen-2-yl]piperidin-3-ylamine]",,20 to 50
"CC(=O)Nc1cccc(O[C@H]2c3ccccc3C[C@@H]2N2CCCC2)n1 (racemic) [Example 668, N-[6-(rac-trans-(1,2)-2-pyrrolidin-1-ylindan-1-yloxy)-pyridin-2-yl]acetamide]",< 1000,
"Cc1nnc(C)n1-c1ccc(O[C@H]2c3cc(Cl)cc(F)c3C[C@@H]2N2CC[C@@H](O)C2)c(Cl)c1 [Example 138, (R)-1-{trans-(1S,2S)-6-chloro-1-[2-chloro-4-(3,5-dimethyl-[1,2,4]triazol-4-yl)phenoxy]-4-fluoroindan-2-yl}pyrrolidin-3-ol]",< 1000,
"CN(C1CCC1)[C@@H]1Cc2ccccc2[C@H]1Oc1ccc(S(C)(=O)=O)cc1 (racemic) [Example 734, Cyclobutyl-[rac-trans-(1,2)-1-(4-methanesulfonyl-phenoxy)-indan-2-yl]-methyl-amine]",1000 to 10000,
"CS(=O)(=O)c1ccc(O[C@H]2c3cc(Cl)cc(Cl)c3C[C@@H]2N2CCCN(CCO)CC2)cc1 [Example 385, 2-{4-[trans-(1S,2S)-4,6-dichloro-1-(4-methanesulfonylphenoxy)indan-2-yl]-[1,4]diazepan-1-yl}-ethanol]",< 1000,
"N#Cc1c(F)cccc1O[C@H]1c2ccccc2CC[C@@H]1N1CCC[C@H](N)C1 (racemic) [Example 372, 2-[rac-trans-(1,2)-2-((S)-3-aminopiperidin-1-yl)-1,2,3,4-tetrahydronaphthalen-1-yloxy]-6-fluorobenzonitrile]",,20 to 50
"CS(=O)(=O)c1ccc(O[C@H]2c3cc(Cl)cc(Cl)c3C[C@@H]2N2CCC[C@@H](N)C2)cc1 [Example 102, (R)-1-[trans-(1S,2S)-4,6-dichloro-1-(4-methanesulfonylphenoxy)indan-2-yl]piperidin-3-ylamine]",< 1000,
"N[C@H]1CCCN([C@@H]2Cc3ccccc3[C@H]2Oc2ccc(-n3ccnc3)cc2)C1 (racemic) [Example 181, (S)-1-[rac-trans-(1,2)-1-(4-imidazol-1-ylphenoxy)indan-2-yl]piperidin-3-ylamine]",1000 to 10000,
"Cc1cc(O[C@H]2c3cc(Cl)cc(F)c3C[C@@H]2N2CCCC2)ccc1S(C)(=O)=O (racemic) [Example 291, 1-[rac-trans-(1,2)-6-chloro-4-fluoro-1-(4-methanesulfonyl-3-methylphenoxy)indan-2-yl]pyrrolidine]",1000 to 10000,
"CCOc1cccc(O[C@@H]2c3ccccc3C[C@H]2N2CCC(CN)C2)c1 (mixture of isomers) [Example 615, C-{1-[rac-trans-(1,2)-1-(3-ethoxyphenoxy)indan-2-yl]pyrrolidin-3-yl}methylamine]",1000 to 10000,
"N[C@@H]1CCCN([C@H]2CCc3ccccc3[C@@H]2Oc2ccc(NC(=O)OCc3ccccc3)cc2)C1 (racemic) [Example 237, {4-[rac-trans-(1,2)-2-((R)-3-aminopiperidin-1-yl)-1,2,3,4-tetrahydronaphthalen-1-yloxy]phenyl}carbamic acid benzyl ester]",,20 to 50
"CS(=O)(=O)c1ccc(O[C@H]2c3cc(Cl)cc(Cl)c3C[C@@H]2N2C[C@H]3CNC[C@H]3C2)cc1 [Example 3, 2-[trans-(1S,2S)-4,6-dichloro-1-(4-methanesulfonylphenoxy)indan-2-yl]octahydropyrrolo[3,4-c]pyrrole]",< 1000,
"CCC(CC)N[C@@H]1Cc2ccccc2[C@H]1Oc1ccc(S(C)(=O)=O)cc1 (racemic) [Example 723, (1-Ethyl-propyl)-[rac-trans-(1,2)-1-(4-methanesulfonyl-phenoxy)-indan-2-yl]-amine]",,20 to 50
"Cc1c(O[C@H]2c3cc(Cl)cc(Cl)c3C[C@@H]2N2CC[C@@H](O)C2)ccc(-n2c(C)nnc2C)c1C [Example 127, (R)-1-{trans-(1S,2S)-4,6-dichloro-1-[4-(3,5-dimethyl-[1,2,4]triazol-4-yl)-2,3-dimethylphenoxy]indan-2-yl}pyrrolidin-3-ol]",< 1000,
"NCC1CCN([C@@H]2Cc3ccccc3[C@H]2Oc2ccc(S(N)(=O)=O)c(Cl)c2Cl)CC1 (racemic) [Example 545, 4-[rac-trans-(1,2)-2-(4-aminomethylpiperidin-1-yl)indan-1-yloxy]-2,3-dichlorobenzenesulfonamide]",1000 to 10000,
"CS(=O)(=O)c1ccc(O[C@H]2c3ccccc3C[C@@H]2NCC2CCCC2)cc1 (racemic) [Example 705, Cyclopentylmethyl-[rac-trans-(1,2)-1-(4-methanesulfonyl-phenoxy)-indan-2-yl]-amine]",1000 to 10000,
"O=C1CNC(=O)N1c1ccc(F)c(O[C@H]2c3cc(Cl)cc(F)c3C[C@@H]2N2CC[C@@H](O)C2)c1 [Example 421, 3-{3-[(1S,2S)-6-chloro-4-fluoro-2-((R)-3-hydroxypyrrolidin-1-yl)indan-1-yloxy]-4-fluorophenyl}imidazolidine-2,4-dione]",1000 to 10000,
"NS(=O)(=O)c1ccc(O[C@H]2c3cc(Cl)ccc3C[C@@H]2N2CCCC2)cc1 (racemic) [Example 473, 4-(rac-trans-(1,2)-6-chloro-2-pyrrolidin-1-ylindan-1-yloxy)benzenesulfonamide]",< 1000,
"CC(=O)Nc1cccc(O[C@H]2c3cc(Cl)cc(Cl)c3C[C@@H]2N2CC[C@@H](O)C2)c1 [Example 696, N-{3-[trans-(1S,2S)-4,6-dichloro-2-((R)-3-hydroxypyrrolidin-1-yl)indan-1-yloxy]phenyl}acetamide]",< 1000,
"Cc1cc(O[C@H]2c3ccccc3CC[C@@H]2N2CCC[C@@H](N)C2)ccc1Cl (racemic) [Example 65, (R)-1-[rac-trans-(1,2)-1-(4-chloro-3-methylphenoxy)-1,2,3,4-tetrahydronaphthalen-2-yl]piperidin-3-ylamine]",,20 to 50
"COCCN1CCCN([C@H]2Cc3c(Cl)cc(Cl)cc3[C@@H]2Oc2ccc(S(C)(=O)=O)cc2)CC1 [Example 304, 1-[trans-(1S,2S)-4,6-dichloro-1-(4-methanesulfonylphenoxy)indan-2-yl]-4-(2-methoxyethyl)-[1,4]diazepane]",< 1000,
"N#Cc1cc(Cl)ccc1O[C@H]1c2ccccc2CC[C@@H]1N1CCC[C@@H](N)C1 (racemic) [Example 366, 2-[rac-trans-(1,2)-2-((R)-3-aminopiperidin-1-yl)-1,2,3,4-tetrahydronaphthalen-1-yloxy]-5-chlorobenzonitrile]",,20 to 50
"O=C1CSC(=O)N1c1ccc(O[C@H]2c3cc(Cl)cc(Cl)c3C[C@@H]2N2CC[C@@H](O)C2)cc1 [Example 428, 3-{4-[(1S,2S)-4,6-dichloro-2-((R)-3-hydroxypyrrolidin-1-yl)indan-1-yloxy]phenyl}thiazolidine-2,4-dione]",< 1000,
